# Measured values taken from patent publication US20050258288A1, “High pressure media milling system and process of forming particles” (E. I. du Pont de Nemours and Company, priority 2003, published 2005).
# Experiments:
# [1] = Particle size of milled product by Malvern Mastersizer 2000 (laser diffraction); format: physicochemical; settings: for X10 / X50 / X90 (90% cumulative undersize): Example 4: piroxicam milled in supercritical CO2, 120 min, by collection method
# [2] = Surface area measurements (BET) of milled product; format: physicochemical; settings: Example 4: piroxicam milled in supercritical CO2; for BET: Table 2
# Description: The yield of the run with the depressurization was 10.7 grams, while in the case of the nozzle dispersion only 2.4 grams were recovered.
# [3] = Example 2: ibuprofen + sodium lauryl sulfate milled in supercritical CO2, ceramic media, 60 min
# [4] = Example 1: lactose + oleic acid milled in supercritical CO2, nylon media, 60 min
# [5] = Example 3: lactose mono hydrate + Span85 milled in liquified HFC 134a, 1000 psi, 60 min
compound,measurement,setting,value
CC(C)Cc1ccc(C(C)C(=O)O)cc1 (stereo not shown) [ibuprofen],10% cumulative undersize,[1]; [3],1.097 micron
same,median size,[1]; [3],2.6 micron
same,90% cumulative undersize,"[1]; Example 2: ibuprofen + sodium lauryl sulfate milled in supercritical CO2, due to agglomeration",219 microns
OC[C@H]1O[C@@H](O[C@H]2[C@H](O)[C@@H](O)C(O)O[C@@H]2CO)[C@H](O)[C@@H](O)[C@H]1O (stereo partly shown) [lactose],10% cumulative undersize,[1]; [4],3.0 micron
same,90% cumulative undersize,[1]; [4],796 micron
same,median particle size,"[1]; Example 1: lactose + oleic acid milled in supercritical CO2, nylon media, 60 min, collected in high pressure filter",75.889 microns
same,10% cumulative undersize,[1]; [5],1.059 micron
same,90% cumulative undersize,[1]; [5],553 micron
same,median particle size,[1]; [5],4.4 microns
"CN1C(C(=O)Nc2ccccn2)=C(O)c2ccccc2S1(=O)=O [Test 1, piroxicam]",X10,[1],3.00 micron
same,X50,[1],5.70 micron
same,X90 (90% cumulative undersize),[1],10.9 micron
same,BET,[2],11.8 sq. m/g
same,"surface area (BET), specific surface area",[2]; listed as product collected in the filter before depressurization,11.8 sq meter per gram
"CN1C(C(=O)Nc2ccccn2)=C(O)c2ccccc2S1(=O)=O [Test 2, piroxicam]",X10,[1],0.08 micron
same,X50,[1],0.26 micron
same,X90 (90% cumulative undersize),[1],2.04 micron
same,BET,[2],9.4 sq. m/g
same,"surface area (BET), specific surface area",[2]; listed as nozzle dispersed material,9.7 sq meter per gram
